Reference: patent publication US10654834B2 (Venenum Biodesign, LLC, priority 2016, dated 2020)
Read-outs that look alike come from different tables or passages of the source.

Experiments:
Mouse STC-1 cells = assay: STC-1 GLP-1 assay (GLP-1 secretion); type: cell-based
Procedure, shortened: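 Secreted active GLP-1 was measured by HTRF after overnight room-temperature incubation of supernatant with the conjugates. Supernatants came from a 2 h, 37° C. compound exposure (12-point half-log series) in HBSS with DPP-IV and protease inhibitors and 0.1% fatty acid free BSA. STC-1 cells had been seeded two days earlier in stripped-serum DMEM; EC50 reported.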

[1] = Pharmacokinetic profile in mice after oral gavage; type: in vivo, mouse; conditions: mouse; fasted male Hilltop mice, 10 mg/kg oral gavage, plasma; read-out: Cmax
Procedure, shortened: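 Plasma exposure (Cmax, AUC) by non-compartmental analysis of LC-MS/MS data, orbital blood taken at 0, 0.25, 0.5, 1, 2 and 4 h, each value averaging three mice. Dosing: 10 mg/kg oral gavage to overnight-fasted male Hilltop mice (8 weeks), vehicle PEG400/CMC/Tween-80.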

[2] = Mouse STC-1 cells, GLP-1 secretion, 2 h, read-out: Mouse STC-1 HTRF GLP-1 Activity (EC50)

Row | SMILES | EC50 (Mouse STC-1 cells; [2]) | Cmax [1] | EC50 (Mouse STC-1 cells; Mus musculus, STC-1, read-out: EC50 concentration of GLP-1 stimulation in STC-1 cells)
1 | N#Cc1ccc(CCNC(=O)[C@@H]2CCCN2c2cc(N3CCC(CCN)CC3)nc(C(F)(F)F)n2)cc1 [Compound 50, (S)-1-(6-(4-(2-aminoethyl)piperidin-1-yl)-2-(trifluoromethyl)pyrimidin-4-yl)-N-(4-cyanophenethyl)pyrrolidine-2-carboxamide] | 1 to 30 µM | 0.214 µg/mL | 
2 | N#Cc1ccc(CCNC(=O)[C@@H]2CCCN(c3cc(N4CCC(CO)CC4)nc(C(F)(F)F)n3)C2)cc1 [Compound 308, (R)—N-(4-cyanophenethyl)-1-(6-(4-(hydroxymethyl)piperidin-1-yl)-2-(trifluoromethyl)pyrimidin-4-yl)piperidine-3-carboxamide] | 0.1 to 0.999 µM | 0.018 µg/mL | 
3 | N#Cc1ccc(CCNC(=O)[C@@H]2CCN2c2cc(N3CCC(CCNC(=N)N)CC3)nc(C(F)(F)F)n2)cc1 [Compound 285, (S)-N-(4-cyanophenethyl)-1-(6-(4-(2-guanidinoethyl)piperidin-1-yl)-2-(trifluoromethyl)pyrimidin-4-yl)azetidine-2-carboxamide] | < 0.1 µM | 0.0009 µg/mL | 
4 | N#C/N=C(\NCCC(=O)O)NCCC1CCN(c2cc(N3CC[C@H]3C(=O)NCCc3ccc(C#N)cc3)nc(C(F)(F)F)n2)CC1 [Compound 351, (S,Z)-3-(2-cyano-3-(2-(1-(6-(2-((4-cyanophenethyl)carbamoyl)azetidin-1-yl)-2-(trifluoromethyl)pyrimidin-4-yl)piperidin-4-yl)ethyl)guanidino)propanoic acid] | < 0.1 µM | 0.301 µg/mL | 
5 | N#Cc1ccc(CCNC(=O)[C@@H]2CCN2c2cc(N3CCC(CCNC(=O)NCCC(=O)O)CC3)nc(C(F)(F)F)n2)cc1 [Compound 268, (S)-3-(3-(2-(1-(6-(2-((4-cyanophenethyl)carbamoyl)azetidin-1-yl)-2-(trifluoromethyl)pyrimidin-4-yl)piperidin-4-yl)ethyl)ureido)propanoic acid] | < 0.1 µM | 0.0077 µg/mL | ~0.055 µM
6 | N#Cc1ccc(CCNC(=O)[C@@H]2CCCN2c2cc(N3CCC(CCCC(=O)NCCS(N)(=O)=O)CC3)nc(C(F)(F)F)n2)cc1 [Compound 62, (S)-N-(4-cyanophenethyl)-1-(6-(4-(4-oxo-4-((2-sulfamoylethyl)amino)butyl)piperidin-1-yl)-2-(trifluoromethyl)pyrimidin-4-yl)pyrrolidine-2-carboxamide] | < 0.1 µM | 0.033 µg/mL | 
7 | N#Cc1ccc(CCNC(=O)[C@@H]2CCN2c2cc(N3CCC(CCCC(=O)NCCOCCNC(=N)N)CC3)nc(C(F)(F)F)n2)cc1 [Compound 284, (S)-N-(4-cyanophenethyl)-1-(6-(4-(4-((2-(2-guanidinoethoxy)-ethyl)amino)-4-oxobutyl)piperidin-1-yl)-2-(trifluoromethyl)pyrimidin-4-yl)azetidine-2-carboxamide] | 0.1 to 0.999 µM | 0.013 µg/mL | 
8 | N#Cc1ccc(CCNC(=O)[C@@H]2CCCN2c2cc(N3CCC(CCNC(=O)NCCS(=O)(=O)NCC(=O)O)CC3)nc(C(F)(F)F)n2)cc1 [Compound 107] | 0.1 to 0.999 µM | 0.0004 µg/mL | 
9 | N#Cc1ccc(CCNC(=O)[C@@H]2CCN2c2cc(N3CCC(CCNC(=O)NCCOCCNC(=N)N)CC3)nc(C(F)(F)F)n2)cc1 [Compound 287, (S)-1-(6-(4-(1-amino-1-imino-9-oxo-5-oxa-2,8,10-triazadodecan-12-yl)piperidin-1-yl)-2-(trifluoromethyl)pyrimidin-4-yl)-N-(4-cyanophenethyl)azetidine-2-carboxamid] | < 0.1 µM | 0.005 µg/mL | 
10 | N#Cc1ccc(CCNC(=O)[C@@H]2CCCN2c2cc(N3CCC(CCNC(=O)NCP(=O)(O)O)CC3)nc(C(F)(F)F)n2)cc1 [Compound 372, (S)-((3-(2-(1-(6-(2-((4-cyanophenethyl)carbamoyl)pyrrolidin-1-yl)-2-(trifluoromethyl)pyrimidin-4-yl)piperidin-4-yl)ethyl)ureido)methyl)phosphonic acid] | < 0.1 µM | 0.105 µg/mL | 
